From US20250170140A1, “PHARMACEUTICAL COMPOSITION FOR PREVENTING OR TREATING CANCER COMPRISING CARNITINE ACYLCARNITINE CARRIER INHIBITOR AND PEROXISOMAL BETA OXIDATION INHIBITOR” (priority 2021, published 2025)

Tests used:
Type in all cases: cell-based
MCF-7 cells = assay: SRB assay, breast cancer cell line MCF-7
Procedure: To determine the effect of the combination treatment of omeprazole (KN510), a carnitine acylcarnitine carrier inhibitor, and thioridazine (KN714), a peroxisome beta-oxidation inhibitor, on cancer cell growth, the extent of cancer cell death was determined using the SRB assay (Sulforhodamine B colorimetric assay), and the degree of cancer cell growth was analyzed relative to the control (100%). As a comparison, omeprazole (KN510) and trimetazidine (KN713), a 3-ketoacyl CoA thiolase inhibitor, were co-treated.
First, a pancreatic cancer cell line, MIA PaCa-2, was prepared, and cells (100 μl) were inoculated into 96-well cell culture plates at plating densities ranging from 5,000 to 20,000 cells/well, depending on the doubling time of each cell line. After cell inoculation, 96-well cell culture plates were incubated for 24 hours before the addition of experimental drugs. MIA PaCa2 cells were treated with omeprazole (KN510) at concentrations of 10^−8 M, 10^−7 M, 10^−6 M, 10^−5 M, 10^−4 M, and 10^−3 M, thioridazine (KN714) at concentrations of 10^−10 M, 10^−9 M, 10^−8M, 10^−7 M, 10^−6 M, and 10^−5 M, and trimetazidine (KN713) at concentrations of 10^−7 M, 10^−6 M, 10^−5 M, 10^−4 M, 10^−3 M, and 10^−2 M, respectively.
(§1) The cells were then incubated in a CO2 incubator for 48 hours, after which the assay was terminated by the addition of cold TCA. Cells were fixed in situ by gently adding 50 μl of cold 50% (w/v) TCA (final concentration: 10% TCA) and incubated at 4° C. for 60 min. The supernatant was discarded, and the plate was washed five times with distilled water and air dried. Sulforhodamine B (SRB) solution (100 μl) of 0.4% (w/v) in 1% acetic acid was added to each well, and the plate was left at room temperature for 10 min. After staining, unbound dye was removed by washing five times with 1% acetic acid, and the plate was air-dried. The bound dye was then solubilized with 10 mM trizma base, and the absorbance was recorded at 515 nm using an automated plate reader.
Based on Table 1 above and GI50 values, omeprazole (KN510) and/or thioridazine (KN714) concentrations were added to each well such that the concentrations were as shown in the following groups, and then cancer cell death was measured in the same manner as in Examples 1-1 above. • 1) Control, • 2) Thioridazine (KN714) 5 μM alone treatment group, • 3) Thioridazine (KN714) 10 μM alone treatment group, • 4) Omeprazole (KN510) 200 μM alone treatment group, • 5) Omeprazole (KN510) 200 μM+thioridazine (KN714) 5 μM combination treatment group, • 6) Omeprazole (KN510) 200 μM+thioridazine (KN714) 10 μM combination treatment group.
When the anticancer activity of two compounds in combination is greater than the simple sum of the anticancer activity of the individual compounds (expected activity), this is called synergistic. The predicted synergistic activity of a combination of the present invention can be calculated using the Colby Equation in Equation 1 (S.R. Colby, Weeds, 1967, pp. 15, 20-22): […]
In the present invention, the actual measure of anti-cancer activity of the combination treatment was the inhibition rate of cancer cell growth (%), and the predicted value (E) of the combination treatment was measured by substituting it into the above Colby Equation. If the actual value is greater than the predicted value, it can be judged that there is a synergistic effect, and in this invention, the predicted value calculated by the Colby Equation and the actual value were compared to further verify the synergistic effect of the combination.
Experiments were performed using the breast cancer cell lines MCF-7 cells (1.2×10^4 cells/well) and MDA-MB-231 cells (8.0×10^3 cells/well) in the same manner as in Examples 1-2 and 1-3 above.

CAKI-1 cells = assay: SRB assay, renal cell carcinoma cell line CAKI-1
Procedure: as §1, with “As a comparison, omeprazole (KN510) and trimetazidine (KN713), a 3-ketoacyl CoA thiolase inhibitor, were co-treated. […] After cell inoculation, 96-well cell culture plates were incubated for 24 hours before the addition of experimental drugs. […] The cells” for “The cells”, “plate reader. […] The predicted synergistic activity of a combination of the present invention can be calculated using the Colby Equation in Equation 1 (S.R. Colby, Weeds, 1967, pp. 15, 20-22): In the present invention, the actual measure of anti-cancer activity of the combination treatment was the inhibition rate of cancer cell growth (%), and the predicted value (E) of the combination treatment was measured by substituting it into the above Colby Equation.” for “plate reader.”

HCT-116 cells = assay: SRB assay, colon cancer cell line HCT-116
Procedure: as §1, with “As a comparison, omeprazole (KN510) and trimetazidine (KN713), a 3-ketoacyl CoA thiolase inhibitor, were co-treated. […] After cell inoculation, 96-well cell culture plates were incubated for 24 hours before the addition of experimental drugs. […] The cells” for “The cells”, “plate reader. […] The predicted synergistic activity of a combination of the present invention can be calculated using the Colby Equation in Equation 1 (S.R. Colby, Weeds, 1967, pp. 15, 20-22): In the present invention, the actual measure of anti-cancer activity of the combination treatment was the inhibition rate of cancer cell growth (%), and the predicted value (E) of the combination treatment was measured by substituting it into the above Colby Equation.” for “plate reader.”

SF295 cells = assay: SRB assay, glioblastoma cell line SF295
Procedure: as §1, with “As a comparison, omeprazole (KN510) and trimetazidine (KN713), a 3-ketoacyl CoA thiolase inhibitor, were co-treated. […] After cell inoculation, 96-well cell culture plates were incubated for 24 hours before the addition of experimental drugs. […] The cells” for “The cells”, “plate reader. […] The predicted synergistic activity of a combination of the present invention can be calculated using the Colby Equation in Equation 1 (S.R. Colby, Weeds, 1967, pp. 15, 20-22): In the present invention, the actual measure of anti-cancer activity of the combination treatment was the inhibition rate of cancer cell growth (%), and the predicted value (E) of the combination treatment was measured by substituting it into the above Colby Equation.” for “plate reader.”

AGS cells = assay: SRB assay, stomach cancer cell line AGS
Procedure: as §1, with “As a comparison, omeprazole (KN510) and trimetazidine (KN713), a 3-ketoacyl CoA thiolase inhibitor, were co-treated. […] After cell inoculation, 96-well cell culture plates were incubated for 24 hours before the addition of experimental drugs. […] The cells” for “The cells”, “plate reader. […] The predicted synergistic activity of a combination of the present invention can be calculated using the Colby Equation in Equation 1 (S.R. Colby, Weeds, 1967, pp. 15, 20-22): In the present invention, the actual measure of anti-cancer activity of the combination treatment was the inhibition rate of cancer cell growth (%), and the predicted value (E) of the combination treatment was measured by substituting it into the above Colby Equation.” for “plate reader.”

SR cells = assay: SRB assay, leukemia cell line SR
Procedure: as §1, with “As a comparison, omeprazole (KN510) and trimetazidine (KN713), a 3-ketoacyl CoA thiolase inhibitor, were co-treated. […] After cell inoculation, 96-well cell culture plates were incubated for 24 hours before the addition of experimental drugs. […] The cells” for “The cells”, “plate reader. […] The predicted synergistic activity of a combination of the present invention can be calculated using the Colby Equation in Equation 1 (S.R. Colby, Weeds, 1967, pp. 15, 20-22): In the present invention, the actual measure of anti-cancer activity of the combination treatment was the inhibition rate of cancer cell growth (%), and the predicted value (E) of the combination treatment was measured by substituting it into the above Colby Equation.” for “plate reader.”

DU-145 cells = assay: SRB assay, prostate cancer cells DU-145
Procedure: as §1, with “As a comparison, omeprazole (KN510) and trimetazidine (KN713), a 3-ketoacyl CoA thiolase inhibitor, were co-treated. […] After cell inoculation, 96-well cell culture plates were incubated for 24 hours before the addition of experimental drugs. […] The cells” for “The cells”, “plate reader. […] The predicted synergistic activity of a combination of the present invention can be calculated using the Colby Equation in Equation 1 (S.R. Colby, Weeds, 1967, pp. 15, 20-22): In the present invention, the actual measure of anti-cancer activity of the combination treatment was the inhibition rate of cancer cell growth (%), and the predicted value (E) of the combination treatment was measured by substituting it into the above Colby Equation.” for “plate reader.”

DLD-1 cells = assay: SRB assay, colon cancer cell line DLD-1
Procedure: as §1, with “As a comparison, omeprazole (KN510) and trimetazidine (KN713), a 3-ketoacyl CoA thiolase inhibitor, were co-treated. […] After cell inoculation, 96-well cell culture plates were incubated for 24 hours before the addition of experimental drugs. […] The cells” for “The cells”, “plate reader. […] The predicted synergistic activity of a combination of the present invention can be calculated using the Colby Equation in Equation 1 (S.R. Colby, Weeds, 1967, pp. 15, 20-22): In the present invention, the actual measure of anti-cancer activity of the combination treatment was the inhibition rate of cancer cell growth (%), and the predicted value (E) of the combination treatment was measured by substituting it into the above Colby Equation.” for “plate reader.”

[1] = Homo sapiens, KN714 5 μM, read-out: Inhibition rate of cancer cell growth (%) (Actual value)
[2] = Homo sapiens, KN714 10 μM, read-out: Inhibition rate of cancer cell growth (%) (Actual value)

Compound: CSc1ccc2c(c1)N(CCC1CCCCN1C)c1ccccc1S2 (centres unmarked) [KN714, 10-[2-(1-methyl-2-piperidyl)ethyl]-2-(methylthio)phenothiazine]
- inhibition at 5 µM (MCF-7 cells; Homo sapiens, MCF7, KN714 5 μM, read-out: Inhibition rate of cancer cell growth (%) (Actual value)): 1.49%
- inhibition at 10 µM (MCF-7 cells; Homo sapiens, MCF7, KN714 10 μM, read-out: Inhibition rate of cancer cell growth (%) (Actual value)): 60.3%
- Cancer cell growth rate Average (%) (MCF-7 cells; KN714 5 μM): 98.51%
- Cancer cell growth rate Average (%) (MCF-7 cells; KN714 10 μM): 39.69%
- inhibition at 5 µM (CAKI-1 cells; [1]): 24%
- inhibition at 10 µM (CAKI-1 cells; [2]): 49.4%
- Cancer cell growth rate Average (%) (CAKI-1 cells; KN714 5 μM): 75.99%
- Cancer cell growth rate Average (%) (CAKI-1 cells; KN714 10 μM): 50.59%
- inhibition at 5 µM (HCT-116 cells; [1]): 7.99%
- inhibition at 10 µM (HCT-116 cells; [2]): 32.2%
- Cancer cell growth rate Average (%) (HCT-116 cells; KN714 5 μM): 92.01%
- Cancer cell growth rate Average (%) (HCT-116 cells; KN714 10 μM): 67.80%
- inhibition at 5 µM (SF295 cells; Homo sapiens, SF-295, KN714 5 μM, read-out: Inhibition rate of cancer cell growth (%) (Actual value)): 16.5%
- inhibition at 10 µM (SF295 cells; Homo sapiens, SF-295, KN714 10 μM, read-out: Inhibition rate of cancer cell growth (%) (Actual value)): 75.5%
- Cancer cell growth rate Average (%) (SF295 cells; KN714 5 μM): 83.54%
- Cancer cell growth rate Average (%) (SF295 cells; KN714 10 μM): 24.47%
- inhibition at 5 µM (AGS cells; [1]): 32.9%
- inhibition at 10 µM (AGS cells; [2]): 84.5%
- Cancer cell growth rate Average (%) (AGS cells; KN714 5 μM): 67.13%
- Cancer cell growth rate Average (%) (AGS cells; KN714 10 μM): 15.46%
- inhibition at 5 µM (SR cells; [1]): 37.2%
- inhibition at 10 µM (SR cells; [2]): 111%
- Cancer cell growth rate Average (%) (SR cells; KN714 5 μM): 62.75%
- Cancer cell growth rate Average (%) (SR cells; KN714 10 μM): −11.34%
- inhibition at 5 µM (DU-145 cells; [1]): 24.5%
- inhibition at 10 µM (DU-145 cells; [2]): 44.7%
- Cancer cell growth rate Average (%) (DU-145 cells; KN714 5 μM): 75.49%
- Cancer cell growth rate Average (%) (DU-145 cells; KN714 10 μM): 55.27%
- inhibition at 5 µM (DLD-1 cells; [1]): 8.66%
- inhibition at 10 µM (DLD-1 cells; [2]): 13.1%
- Cancer cell growth rate Average (%) (DLD-1 cells; KN714 5 μM): 91.34%
- Cancer cell growth rate Average (%) (DLD-1 cells; KN714 10 μM): 86.87%
